Test results as given in patent EP0395099B1 (priority 1989, dated 1990).
Where two headings read alike, the source gives them in different places.

System: Staphylococcus aureus strain FRI-1169
Assay: microbe, parasite or virus in culture
Format: cell-based
Settings: for inhibition at 1 % / inhibition at 0.1 % / inhibition at 0.5 % / inhibition at 10 %: Staphylococcus aureus; for inhibition at 0.1 %: FRI1169, read-out: Reduction in TSST-1 Formation, Example 11: test tampon comprising 0.1% fatty acid ester; for inhibition at 0.5 %: FRI1169, read-out: Reduction in TSST-1 Formation, Example 11: test tampon comprising 0.5% fatty acid ester; for inhibition at 10 %: FRI1169, read-out: Reduction in TSST-1 Formation, Example 11: test tampon comprising 10% fatty acid ester
[1] = Example 8: test tampon comprising 1% by weight of the ester, 24 hours at 37°C
[2] = Example 8: test tampon comprising 1% by weight of the ester, 24 hours at 37°C, ELISA
[3] = FRI1169, read-out: REDUCTION IN TSST-1 FORMATION, Example 8: test tampon comprising 1% by weight of the ester, vs untreated control tampon
[4] = Example 11: test tampon comprising 0.1% fatty acid ester
[5] = Example 11: test tampon comprising 0.5% fatty acid ester
[6] = Example 11: test tampon comprising 1.0% fatty acid ester
[7] = Example 11: test tampon comprising 10% fatty acid ester
[8] = FRI1169, read-out: Reduction in TSST-1 Formation, Example 11: test tampon comprising 1.0% fatty acid ester

Row | Compound | FINAL CONCENTRATION OF S. AUREUS CELLS, log to the base 10 [1] | Total Amount TSST-1 Produced [2] | inhibition at 1 % [3] | Log of Final Concn. of S. aureus [4] | Total Amount TSST-1 Produced [4] | Log of Final Concn. of S. aureus [5] | Total Amount TSST-1 Produced [5] | Log of Final Concn. of S. aureus [6] | Total Amount TSST-1 Produced [6] | Log of Final Concn. of S. aureus [7] | Total Amount TSST-1 Produced [7] | inhibition at 0.1 % | inhibition at 0.5 % | inhibition at 1 % [8] | inhibition at 10 %
1 | CCCCCCCCCCCC(=O)OCC(O)CO (stereo not drawn) [Tampon No. 2, Glyceryl monolaurate] | 6.81 /ml | 0.14 »g | 99.1% |  |  |  |  |  |  |  |  |  |  |  | 
2 | CCCCCCCCCCCC(=O)OCC(C)O (stereo not drawn) [Tampon 1, 2-Hydroxy-1-propyl laurate] |  |  |  | 9.1 /ml | 7.93 »g | 7.64 /ml | 1.25 »g | 8.79 /ml | 0.09 »g | 8.37 /ml | 0.05 »g | ~7% | 85% | ~99% | 99%
3 | CCCCCCCCCCCCCCCCCC(=O)OCC(O)CO (stereo not drawn) [Tampon No. 5, Glyceryl monostearate] | 8.78 /ml | 6.43 »g | 60% |  |  |  |  |  |  |  |  |  |  |  | 
4 | CCCCCCCCCCCC(=O)OCCOCCO [Tampon 2, Diethylene glycol monolaurate] |  |  |  | 8.45 /ml | 0.12 »g | 7.40 /ml | 0.01 »g | 6.13 /ml | 0.01 »g | 7.42 /ml | 0.11 »g | 99% | 99% | ~99% | 99%
5 | CCCCCCCCCCCCCC(=O)OCC(O)CO (stereo not drawn) [Tampon No. 3, Glyceryl monomyristate] | 8.70 /ml | 0.58 »g | 96.6% |  |  |  |  |  |  |  |  |  |  |  | 
6 | CCCCCCCCCCCCCCCC(=O)OCC(O)CO (stereo not drawn) [Tampon No. 4, Glyceryl monopalmitate] | 9.15 /ml | 1.75 »g | 89.7% |  |  |  |  |  |  |  |  |  |  |  | 
7 | CCCCCCCC/C=C\CCCCCCCC(=O)OCC(O)CO (stereo not drawn) [Tampon No. 6, Glyceryl monooleate] | 8.83 /ml | 1.01 »g | 94.1% |  |  |  |  |  |  |  |  |  |  |  | 
